Assay results from article PMC9459403, “New inhibitors of cathepsin V impair tumor cell proliferation and elastin degradation and increase immune cell cytotoxicity” (Computational and Structural Biotechnology Journal, 2022).
“Also recorded” adds a separate entry of the source. Marks after values point to notes of the source that are not given here. Where a SMILES comes first, the peptide text is derived from it. [ ]: non-standard residue; d: D form. The star is where a group is joined. Sta = CC(C)C[C@H](N)[C@@H](O)CC(=O)O; Isovaleryl = CC(C)CC(=O)*

Experiments:
[1] = tested on: U-937-derived macrophages; assay: Intracellular elastin-FITC degradation; format: cell-based, human; conditions: 24 h; for effect on degradation of elastin-FITC compared to control cells: CLIK-148 1 μM, LHVS 10 nM; for decrease of elastin-FITC degradation: 10 μM, vs DMSO
Experimental: To evaluate the effect of the inhibitors on the elastolytic activity of cathepsin V, we assessed the intracellular degradation of elastin-FITC, a soluble bovine neck ligament elastin that is heavily labeled with FITC such that the fluorescence of the conjugate is quenched. Upon proteolysis, fluorescence is recovered and can be detected. U-937 cells, differentiated into macrophage-like cells, were seeded (at 1 × 10^5 cells/well) into 24-well plates with 500 μL of medium supplemented with 50 nM PMA. Inhibitors or DMSO (0.1 %) and elastin-FITC (10 μg/mL; AnaSpec, Fermont, CA, USA) were added to the medium and incubated for 24 h at 37 °C. Cells were detached and washed with PBS, and propidium iodide (BD Bioscience) was added to exclude dead cells. Therefore, green fluorescence arising from elastin-FITC degradation was monitored only for viable cells. The measurement was performed using a FACSCalibur instrument (BD Biosciences).

MCF7 cells = assay: Proliferation assay (CFSE-labeled cells, flow cytometry); format: cell-based, human; conditions: 72 h; E-64d 10 μM, pepstatin 20 μM, LHVS 10 nM, CLIK-148 1 μM
Experimental: To assess the effect of cathepsin V inhibitors on cell proliferation, MCF7 cells were fluorescently labeled with carboxyfluorescein succinimidyl ester (CFSE; ImmunoChemistry Technologies, Bloomington, MN, USA) in PBS for 15 min at room temperature according to the manufacturer’s instructions. Cells were washed with PBS, resuspended in complete medium, seeded (at 4 × 10^4 cells/well) into 24-well plates, and allowed to adhere overnight. Cells were then treated with the following inhibitors: compound 7 (10 μM), E-64d (10 μM), CLIK-148 (1 μM), LHVS (10 nM), pepstatin (20 μM), their combinations, or DMSO (0.1 %) in 500 μL of medium for 72 h at 37 °C. To prepare cells for flow cytometry, cells were detached and transferred to round-bottomed polystyrene tubes and washed with PBS. Before measurement, 7-aminoactinomycin D (7-AAD; ImmunoChemistry Technologies, Bloomington, MN, USA) was added according to the manufacturer’s instructions to exclude dead cells. Therefore, the green fluorescence arising from CFSE was monitored only for viable cells. The measurement was performed using a FACSCalibur instrument (BD Biosciences, San Jose, CA, USA).

Cathepsin V [2] = molecular target: T1, Cathepsin V (Homo sapiens, UniProt O60911); assay: Determination of Ki values and mode of inhibition; format: biochemical; conditions: for fold lower inhibition constant for cathepsin V than cathepsin L: selectivity cathepsin V vs cathepsin L
T1 construct: made in house; host or cells: Pichia pastoris
T1 sequence (O60911 114-334): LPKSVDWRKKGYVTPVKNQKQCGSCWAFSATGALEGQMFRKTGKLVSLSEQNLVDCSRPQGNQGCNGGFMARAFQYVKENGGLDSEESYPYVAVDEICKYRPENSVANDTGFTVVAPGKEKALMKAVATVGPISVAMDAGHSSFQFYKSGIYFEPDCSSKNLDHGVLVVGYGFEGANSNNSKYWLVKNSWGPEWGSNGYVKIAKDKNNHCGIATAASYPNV
Experimental: (§1) Human recombinant cathepsin V was expressed in Pichia Pastoris, and human recombinant cathepsin L was expressed in Escherichia coli, as reported, [51]. To determine the activities of cathepsins V and L, 100 mM acetate buffer (pH 5.5), containing 0.1 % PEG 8000 (Sigma-Aldrich, St. Louis, MO, USA), 5 mM cysteine, and 1.5 mM EDTA was used. Prior to the assay, the enzyme was activated in the assay buffer for 5 min at 37 °C.
(§2) Inhibition constants were calculated from reaction velocities measured at three substrate concentrations (0.5, 1, and 4 μM) in the presence of inhibitors at seven concentrations (0, 20, 40, 60, 80, 100, and 200 µM). The reaction was initiated by adding 90 μL of enzyme at final concentrations of 2.5 ng/mL and 0.02 nM for cathepsins V and L, respectively, to the wells of a black microtiter plate containing 5 μL of substrate and 5 μL of inhibitor. To evaluate cathepsin V and L activity, the substrate Z-Phe-Arg-AMC was used. The formation of the fluorescent degradation products was monitored as described above. All assay mixtures contained 5 % (v/v) DMSO. All measurements were performed in duplicates and repeated at least twice. The SigmaPlot® 12, Enzyme Kinetics Module™ 1.3 was used to calculate Ki values.

[3] = molecular target: T2, human recombinant cathepsin L (Homo sapiens, UniProt P07711); assay: Determination of Ki values and mode of inhibition; format: biochemical
T2 construct: made in house; host or cells: Escherichia coli
T2 sequence (P07711 114-333): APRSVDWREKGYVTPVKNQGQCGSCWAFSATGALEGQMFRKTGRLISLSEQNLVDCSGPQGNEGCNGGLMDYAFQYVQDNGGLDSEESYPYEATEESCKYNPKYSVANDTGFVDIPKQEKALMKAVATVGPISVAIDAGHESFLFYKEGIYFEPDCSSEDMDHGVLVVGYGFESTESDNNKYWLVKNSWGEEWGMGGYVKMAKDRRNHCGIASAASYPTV
Experimental: as §1, §2

Cathepsin V [4] = molecular target: T1, Cathepsin V; assay: Determination of relative inhibition, substrate Z-Phe-Arg-AMC; format: biochemical; conditions: inhibitor 50 μM; substrate 2 μM; mean ± SD (n = 2); read-out: Cathepsin V Ri (%) relative inhibition
Experimental: as §1
(§3) The effect of the inhibitors on cathepsin V and L activity was determined using the substrate Z-Phe-Arg-AMC (Bachem, Bubendorf, Switzerland). The reaction was initiated by adding 90 μL of the activated enzyme (final concentration 2.5 ng/mL and 0.02 nM for cathepsins V and L, respectively) to the wells of a black microtiter plate containing 5 μL of substrate (with a final concentration 2 μM) and 5 μL of inhibitor (with a final concentration of 50 μM). The formation of fluorescent degradation products during the reaction was monitored continuously at 460 nm ± 10 nm with excitation at 380 nm ± 20 nm at 37 °C on a Tecan Infinite M1000 (Mannedorf, Switzerland) spectrofluorometer. All assay mixtures contained 5 % (v/v) DMSO. To prevent false-positive inhibition due to the formation of compound aggregates, 0.01 % Triton X-100 was used. All measurements were performed in triplicate and repeated at least twice. Relative inhibition was calculated using the following equation: relative inhibition (%) = 100(1- vi/vo), where vi and vo denote the reaction velocities in the presence and absence of the inhibitor, respectively.

[5] = molecular target: T2, human recombinant cathepsin L; assay: as above; format: biochemical; conditions: inhibitor 50 μM; substrate 2 μM; mean ± SD (n = 2); read-out: Cathepsin L Ri (%) relative inhibition
Experimental: as §1, §3

Cathepsin V [6] = molecular target: T1, Cathepsin V; assay: Determination of binding reversibility (dilution method); format: biochemical; conditions: inhibitor 100 μM, cathepsin V 500 ng/ml
Experimental: Binding reversibility was determined according to the dilution method, which measures the recovery of enzymatic activity after rapid dilution of the enzyme-inhibitor complex. Cathepsin V (500 ng/ml) was incubated in the assay buffer with the inhibitor (100 μM). Half of the reaction mixture was immediately diluted 100-fold with the assay buffer and added to the wells of a black microplate containing 5 μL of substrate (at a final concentration of 2 μM), and the activity was measured. The other half of the reaction mixture was incubated for 2 h before it was diluted 100-fold, and then the activity was measured. The assay was performed in triplicates and repeated at least two times.

mode of inhibition of cathepsin V (Cathepsin V [2])	Ki (Cathepsin V [2]; mean ± SD (n = 2)) [µM]	mode of inhibition of cathepsin L [3]	Ki ([3]; mean ± SD (n = 2)) [µM]	inhibition at 50 µM (Cathepsin V [4]) [%]	inhibition at 50 µM [5] [%]	Cathepsin V Ki (µM) (Cathepsin V [2]; mean ± SD (n = 2))	Cathepsin L Ki ([3]; mean ± SD (n = 2)) [µM]	Cathepsin L Ki′ ([3]; mean ± SD (n = 2)) [µM]	Cathepsin V Ki′ (µM) (Cathepsin V [2]; mean ± SD (n = 2))	fold lower inhibition constant for cathepsin V than cathepsin L (Cathepsin V [2])	Cathepsin V Ki′ (Cathepsin V [2]; mean ± SD (n = 2)) [µM]	SMILES	effect on degradation of elastin-FITC compared to control cells [1]	effect on cell proliferation (relative CFSE fluorescence intensity vs DMSO) (MCF7 cells)	binding reversibility: cathepsin V activity after 2 h incubation and 100-fold rapid dilution (Cathepsin V [6])	Cathepsin L Ki′ (µM) ([3]; mean ± SD (n = 2))	decrease of elastin-FITC degradation [1] [%]
												CN(C)C(=O)[C@H](Cc1ccccc1)NC(=O)[C@H]1O[C@@H]1C(=O)NCCc1ccccn1 [CLIK-148, reference compound]	did not decrease	no effects on cell proliferation			
competitive	352 ± 78.6	competitive	84.3 ± 4	> 20	23.5 ± 2.2							CC(=O)c1cccc(NC(=O)c2cnc3sccn3c2=O)c1 [Compound 4, N-(3-acetylphenyl)-5-oxo-5H-thiazolo[3,2-a]pyrimidine-6-carboxamide]			reversible inhibition		
		uncompetitive		-5.8 ± 7	30.3 ± 5.5	no inhibition	11.2 ± 0.1	11.2 ± 0.1				O=C(Nc1nc2c(s1)CN(Cc1ccccc1)CC2)c1cccc2ccccc12 [Compound 5, N-(5-benzyl-4,5,6,7-tetrahydrothiazolo[5,4-c]pyridin-2-yl)-1-naphthamide]			reversible inhibition; also recorded: restored	11.2 ± 0.1^e µM	
competitive	8 ± 0.02	competitive	9.9 ± 0.9		83.7 ± 1							CCCNC(=O)[C@H]1O[C@@H]1C(=O)N[C@H](C(=O)N1CCC[C@@H]1C(=O)OC)[C@@H](C)CC [Compound 25, Methyl ((2S,3S)-3-(propylcarbamoyl)oxirane-2-carbonyl)-L-isoleucyl-D-prolinate]			irreversible; also recorded: completely blocked		12.6 ± 4.8
noncompetitive	68.3 ± 4.6	competitive	249 ± 29.8	> 20	22.6 ± 5.1				68.3 ± 4.6 ^g µM	more than 3 fold		Cc1cc(OCc2ccccc2)c(C(=O)C2OC2c2cc3ccccc3o2)cc1C (centres unmarked) [Compound 27, (3-(Benzofuran-2-yl)oxiran-2-yl)(2-(benzyloxy)-4,5-dimethylphenyl)methanone]			tight-binding or irreversible; also recorded: only partially restored		7.1 ± 2.7
uncompetitive		competitive	454 ± 69.1	27.6 ± 8.7	12.4 ± 0.7				21.2 ± 2.0^f µM	21 fold	21.2 ± 2.0	O=C(c1ccccc1OCc1ccccc1)C1OC1c1csc(-c2ccccc2)n1 (centres unmarked) [Compound 40, (2-(Benzyloxy)phenyl)(3-(2-phenylthiazol-4-yl)oxiran-2-yl)methanone]			reversible; also recorded: restored		
												CC(C)C[C@H](NC(=O)N1CCOCC1)C(=O)N[C@H](/C=C/S(=O)(=O)c1ccccc1)CCc1ccccc1 [LHVS, morpholinurea-leucine-homophenylalanine-vinylsulfone-phenyl, reference compound]	did not decrease	no effects on cell proliferation			
												CC(C)CC(=O)N[C@H](C(=O)N[C@H](C(=O)N[C@@H](CC(C)C)[C@@H](O)CC(=O)N[C@@H](C)C(=O)N[C@@H](CC(C)C)[C@@H](O)CC(=O)O)C(C)C)C(C)C [pepstatin] (Isovaleryl-VV[Sta]A[Sta]-OH)		no effects on cell proliferation			

SMILES	mode of inhibition of cathepsin V (Cathepsin V [2])	Ki (Cathepsin V [2]; mean ± SD (n = 2)) [µM]	mode of inhibition of cathepsin L [3]	Ki ([3]; mean ± SD (n = 2)) [µM]	inhibition at 50 µM (Cathepsin V [4]) [%]	inhibition at 50 µM [5] [%]	Cathepsin V Ki (µM) (Cathepsin V [2]; mean ± SD (n = 2))	Cathepsin L Ki ([3]; mean ± SD (n = 2)) [µM]	Cathepsin L Ki′ ([3]; mean ± SD (n = 2)) [µM]	Cathepsin V Ki′ (µM) (Cathepsin V [2]; mean ± SD (n = 2))	fold lower inhibition constant for cathepsin V than cathepsin L (Cathepsin V [2])	Cathepsin V Ki′ (Cathepsin V [2]; mean ± SD (n = 2)) [µM]	effect on degradation of elastin-FITC compared to control cells [1]	effect on cell proliferation (relative CFSE fluorescence intensity vs DMSO) (MCF7 cells)	binding reversibility: cathepsin V activity after 2 h incubation and 100-fold rapid dilution (Cathepsin V [6])	Cathepsin L Ki′ (µM) ([3]; mean ± SD (n = 2))	decrease of elastin-FITC degradation [1] [%]
O=C(NCC1CCN(C(=O)Oc2ccccc2)CC1)NC(c1ccccc1)c1ccccc1 [Compound 42, Phenyl 4-((3-benzhydrylureido)methyl)piperidine-1-carboxylate]	noncompetitive	156 ± 3.4	noncompetitive	319 ± 28.6	21.6 ± 4.6	3.5 ± 3.1				155.8 ± 3.4^e µM	more than 2 fold				reversible; also recorded: restored	319.2 ± 28.6^e µM	
